These are literature values, as cited in US20080166695A1, “Solution for the storage and perfusion of organs awaiting transplantation” (Sigma-Tau Industrie Farmaceutiche Riunite S.p.A., priority 2001, published 2008).

SMILES strings stand for the structures.

This data set concerns isolated rabbit heart. The settings on record: isolated rabbit heart perfused with whole blood with L-carnitine added.

Regarding `C[N+](C)(C)C[C@H](O)CC(=O)[O-]` [L-carnitine], the “recovery of cardiac functions” value is “protective effect”.
